Like-named read-outs stand apart in the source and are kept apart here.
Columns and labels:
[1] = tested on: PAT/Cry1F-transformed Arabidopsis; test: T1 Arabidopsis spray test, % visual injury 2 WAT: PAT/Cry1F transformed control; assay type: in vivo, Arabidopsis thaliana; details: for % Injury 20-40% / % Injury <20% / % Injury >40%: number of individuals
Source text: Random individual T1 plants selected for glufosinate resistance above were confirmed for expression of the PAT protein using a PAT ELISA kit (Part no. 7000045, Strategic Diagnostics, Inc., Newark, Del.) to non-destructively confirm fidelity of selection process (manufacturer's protocol). Plants were then randomly assigned to various rates of phenoxy herbicides (dichlorprop or 2,4-D). […] Elevated rates were applied in subsequent trials (50, 200, 800, or 3200 g ae/ha).
All auxin herbicide applications were made using the DeVilbiss sprayer as described above to apply 703 L/ha spray volume (0.4 ml solution/3-inch pot) or applied by track sprayer in a 187 L/ha spray volume. […] Dichlorprop used was technical grade (Sigma, St. Louis, Mo.) dissolved in DMSO and diluted in water (<1% DMSO final concentration). As herbicide rates increased beyond 800 g ae/ha, the pH of the spray solution became exceedingly acidic, burning the leaves of young, tender Arabidopsis plants and complicating evaluation of the primary effects of the herbicides. It became standard practice to apply these high rates of phenoxy herbicides in 200 mM Tris buffer (pH 9.0) to a final pH of ˜7-8.
Although Arabidopsis, being a dicot, is not an optimal system for testing ACCase-inhibiting AOPP grass herbicides, AAD1 (v3)-transformed T1 plants were subjected to elevated rates (400-1600 g ae/ha) of RS-haloxyfop acid (internally synthesized) that do cause growth abnormalities and death of wildtype Arabidopsis using the DeVilbiss sprayer as described above. Injury ratings were taken 7 and 14 days after treatment. Likewise, T1 individuals were treated with the pyridyloxyacetate auxin herbicide, fluroxypyr.
Table 16. […] Response is presented in terms of % visual injury 2 WAT. […] Since each T1 is an independent transformation event, one can expect significant variation of individual T1 responses within a given rate. An arithmetic mean and standard deviation is presented for each treatment. The range in individual response is also indicated in the last column for each rate and transformation. PAT/Cry1F-transformed Arabidopsis served as an auxin-sensitive transformed control. Wildtype Arabidopsis is untransformed.
(§1) Table 17. T1 Arabidopsis response to a range of dichlroprop rates applied postemergence. Response is presented in terms of % visual injury 2 WAT. […] Since each T1 is an independent transformation event, one can expect significant variation of individual T1 responses within a given rate. An arithmetic mean and standard deviation is presented for each treatment. The range in individual response is also indicated in the last column for each rate and transformation. PAT/Cry1F-transformed Arabidopsis served as an auxin-sensitive transformed control. Wildtype Arabidopsis is untransformed.
as §1, with “18.” for “17.”, “haloxyfop” for “dichlroprop”, “postemergence at artificially high rates attempting to show tolerance of the dicot Arabidopsis to the graminicide.” for “postemergence.”

[2] = tested on: Arabidopsis thaliana var. Columbia; test: Arabidopsis plate test bioassay for herbicide degradation; assay type: in vivo; details: for IC50: 168 h; for GR50 ratio: enzyme-expressing lysate vs blank vector, ≥ 2 = threshold for activity loss; for herbicidal activity after AAD1 (v1) treatment, Arabidopsis plate assay: unpurified recombinant AAD1 (v1) extract
wt ARBTH = test: In vitro plate test of herbicide cross resistance: wild-type Arabidopsis; assay type: in vivo, Arabidopsis thaliana; details: 7 days
In short: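 Surface-sterilised seeds sown in nutrient agar dosed with test compounds from DMSO stocks (final DMSO ≤1% v/v; DMSO-only control), grown 7 days at 25 °C under continuous light (75 μE m^−2 s^−1). Shoot growth reduction scored visually; root length measured (≥5 plants averaged) vs control. I50 calculated for root and shoot.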

[3] = Arabidopsis thaliana, read-out: GR50, Chemical + AAD1 v1
[4] = Escherichia coli, in Arabidopsis thaliana, cell lysate of E. coli pET vector without gene insert, read-out: GR50, Chemical + Blank Vector
[5] = PAT/Cry1F (transformed control), 50 g ae/ha
[6] = PAT/Cry1F (transformed control), 200 g ae/ha
[7] = PAT/Cry1F (transformed control), 800 g ae/ha

CC(Oc1ccc(Oc2ncc(C(F)(F)F)cc2Cl)cc1)C(=O)O (stereo not drawn) [haloxyfop]
% Injury Ave ([1]; 100 g ae/ha, PAT/Cry1F): 0.0%
% Injury Range ([1]; 100 g ae/ha, PAT/Cry1F): 0%
% Injury Ave ([1]; 200 g ae/ha, PAT/Cry1F): 10.0%
% Injury Range ([1]; 200 g ae/ha, PAT/Cry1F): 10%
% Injury Ave ([1]; 400 g ae/ha, PAT/Cry1F): 27.5%
% Injury Range ([1]; 400 g ae/ha, PAT/Cry1F): 20-30%
% Injury Ave ([1]; 800 g ae/ha, PAT/Cry1F): 78.8%
% Injury Range ([1]; 800 g ae/ha, PAT/Cry1F): 70-85%
% Injury Ave ([1]; 1600 g ae/ha, PAT/Cry1F): 47.5%
% Injury Range ([1]; 1600 g ae/ha, PAT/Cry1F): 80-100%
% Injury 20-40% ([1]; 100 g ae/ha, PAT/Cry1F): 0
% Injury <20% ([1]; 100 g ae/ha, PAT/Cry1F): 4
% Injury >40% ([1]; 100 g ae/ha, PAT/Cry1F): 0
% Injury 20-40% ([1]; 200 g ae/ha, PAT/Cry1F): 0
% Injury <20% ([1]; 200 g ae/ha, PAT/Cry1F): 4
% Injury >40% ([1]; 200 g ae/ha, PAT/Cry1F): 0
% Injury 20-40% ([1]; 400 g ae/ha, PAT/Cry1F): 4
% Injury <20% ([1]; 400 g ae/ha, PAT/Cry1F): 0
% Injury >40% ([1]; 400 g ae/ha, PAT/Cry1F): 0
% Injury 20-40% ([1]; 800 g ae/ha, PAT/Cry1F): 0
% Injury <20% ([1]; 800 g ae/ha, PAT/Cry1F): 0
% Injury >40% ([1]; 800 g ae/ha, PAT/Cry1F): 4
% Injury 20-40% ([1]; 1600 g ae/ha, PAT/Cry1F): 0
% Injury <20% ([1]; 1600 g ae/ha, PAT/Cry1F): 0
% Injury >40% ([1]; 1600 g ae/ha, PAT/Cry1F): 4

Nc1c(Cl)c(F)nc(OCC(=O)O)c1Cl [Fluroxypyr]
IC50 [2, 3]: 1820 nM
IC50 ([2]; Arabidopsis thaliana, root length, 7 days, read-out: GR50, Chemical alone): 2200 nM
IC50 [2, 4]: 2250 nM
GR50 ratio [2]: <1
wt ARBTH root 150 (wt ARBTH): 0.2 ppm
wt ARBTH shoot 150 (wt ARBTH): 2 ppm

CC(Oc1ccc(Cl)cc1Cl)C(=O)O (racemic) [(R,S)-dichlorprop, 2,4-dichlorophenoxypropionic acid]
IC50 ([2]; Arabidopsis thaliana, AAD1 (v1)-expressing lysate, nominal concentration, read-out: GR50, Chemical + AAD1 v1): 1000 nM
IC50 [2, 4]: 30 nM
GR50 ratio [2]: 33
herbicidal activity after AAD1 (v1) treatment, Arabidopsis plate assay [2]: effectively degraded
% Injury Ave ([1]; PAT/Cry1F, 12.5 g ae/ha): 38.1%
% Injury Range ([1]; PAT/Cry1F, 12.5 g ae/ha): 20-95%
individuals with 20-40% injury ([1]; PAT/Cry1F, 12.5 g ae/ha): 6
individuals with <20% injury ([1]; PAT/Cry1F, 12.5 g ae/ha): 0
individuals with >40% injury ([1]; PAT/Cry1F, 12.5 g ae/ha): 2
% Injury Ave ([1]; PAT/Cry1F, 50 g ae/ha): 80.0%
% Injury Range ([1]; PAT/Cry1F, 50 g ae/ha): 50-100%
individuals with 20-40% injury ([1]; PAT/Cry1F, 50 g ae/ha): 0
individuals with <20% injury ([1]; PAT/Cry1F, 50 g ae/ha): 0
individuals with >40% injury ([1]; PAT/Cry1F, 50 g ae/ha): 8
% Injury Ave ([1]; PAT/Cry1F, 200 g ae/ha): 98.3%
% Injury Range ([1]; PAT/Cry1F, 200 g ae/ha): 95-100%
individuals with 20-40% injury ([1]; PAT/Cry1F, 200 g ae/ha): 0
individuals with <20% injury ([1]; PAT/Cry1F, 200 g ae/ha): 0
individuals with >40% injury ([1]; PAT/Cry1F, 200 g ae/ha): 8
% Injury Ave ([1]; PAT/Cry1F, 800 g ae/ha): 100.0%
% Injury Range ([1]; PAT/Cry1F, 800 g ae/ha): 100%
individuals with 20-40% injury ([1]; PAT/Cry1F, 800 g ae/ha): 0
individuals with <20% injury ([1]; PAT/Cry1F, 800 g ae/ha): 0
individuals with >40% injury ([1]; PAT/Cry1F, 800 g ae/ha): 8
wt ARBTH root 150 (wt ARBTH): 0.01 ppm
wt ARBTH shoot 150 (wt ARBTH): 2 ppm

O=C(O)COc1ccc(Cl)cc1Cl [2,4-D, 2,4-dichlorophenoxyacetic acid]
IC50 [2, 3]: 267 nM
IC50 ([2]; Arabidopsis thaliana, read-out: GR50, Chemical alone): 22 nM
IC50 ([2]; Escherichia coli, in Arabidopsis thaliana, read-out: GR50, Chemical + Blank Vector): 17 nM
herbicidal activity after AAD1 (v1) treatment, Arabidopsis plate assay [2]: almost complete loss
% Injury Ave [1, 5]: 90.7%
individuals with 20-40% injury [1, 5]: 0
individuals with <20% injury [1, 5]: 0
individuals with >40% injury [1, 5]: 15
% Injury Ave [1, 6]: 97.2%
individuals with 20-40% injury [1, 6]: 0
individuals with <20% injury [1, 6]: 0
individuals with >40% injury [1, 6]: 15
% Injury Ave [1, 7]: 100.0%
individuals with 20-40% injury [1, 7]: 0
individuals with <20% injury [1, 7]: 0
individuals with >40% injury [1, 7]: 15
wt ARBTH root 150 (wt ARBTH): <0.01 ppm
wt ARBTH shoot 150 (wt ARBTH): 0.2 ppm

Reference: US10450549B2, “Aryloxyphenoxypropionate tolerance in turfrgass species and use of AAD1 as a selectable marker” (Dow AgroSciences, LLC, priority 2004, dated 2019)
